The values below come from ChEMBL document CHEMBL3046359, “QSAR and pharmacophore studies of telomerase inhibitors” (Med Chem Res, 2012).

Molecules are shown by their SMILES.

The first assay deals with Telomerase reverse transcriptase (Homo sapiens) (UniProt O14746). The assay can be described thus: Inhibition of telomerase (unknown origin).
Chain of Telomerase reverse transcriptase (Homo sapiens) (O14746 whole entry): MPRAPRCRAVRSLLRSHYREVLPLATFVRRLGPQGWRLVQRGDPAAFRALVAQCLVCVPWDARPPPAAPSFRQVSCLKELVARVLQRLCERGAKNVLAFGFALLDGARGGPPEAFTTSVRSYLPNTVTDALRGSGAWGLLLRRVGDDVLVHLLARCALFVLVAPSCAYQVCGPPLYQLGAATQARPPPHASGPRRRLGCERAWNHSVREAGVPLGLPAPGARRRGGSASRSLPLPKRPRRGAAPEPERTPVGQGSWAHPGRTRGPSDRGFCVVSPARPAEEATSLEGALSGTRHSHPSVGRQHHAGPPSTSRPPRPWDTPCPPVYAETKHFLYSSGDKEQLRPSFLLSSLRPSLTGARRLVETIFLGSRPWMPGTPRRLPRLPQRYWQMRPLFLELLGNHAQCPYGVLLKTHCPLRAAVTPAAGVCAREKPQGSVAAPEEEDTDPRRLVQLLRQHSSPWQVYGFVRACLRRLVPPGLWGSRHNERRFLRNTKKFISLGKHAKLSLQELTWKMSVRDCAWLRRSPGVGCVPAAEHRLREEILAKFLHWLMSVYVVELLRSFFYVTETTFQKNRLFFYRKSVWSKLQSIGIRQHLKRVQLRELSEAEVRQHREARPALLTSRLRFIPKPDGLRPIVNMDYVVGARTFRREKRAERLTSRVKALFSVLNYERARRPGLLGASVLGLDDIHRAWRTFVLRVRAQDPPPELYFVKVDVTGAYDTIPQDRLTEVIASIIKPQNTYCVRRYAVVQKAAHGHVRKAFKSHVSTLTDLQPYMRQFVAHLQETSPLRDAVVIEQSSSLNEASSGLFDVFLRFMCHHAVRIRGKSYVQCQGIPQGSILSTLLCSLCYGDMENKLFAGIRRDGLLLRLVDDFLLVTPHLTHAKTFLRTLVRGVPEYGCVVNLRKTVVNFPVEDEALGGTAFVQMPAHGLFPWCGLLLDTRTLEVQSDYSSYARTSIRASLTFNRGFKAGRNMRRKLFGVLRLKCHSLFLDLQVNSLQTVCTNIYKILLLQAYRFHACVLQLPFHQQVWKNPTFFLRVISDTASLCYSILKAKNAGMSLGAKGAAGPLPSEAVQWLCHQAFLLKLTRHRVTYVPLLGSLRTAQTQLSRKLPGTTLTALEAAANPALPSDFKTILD
On to `CCN1CCN(CCC(=O)Nc2ccc3c(c2)C(=O)c2cc(NC(=O)CCN4CCN(CC)CC4)ccc2-3)CC1`, for which the logIC50 was 1.23.
`CCCNCc1ccc2nc3ccc4cc5cc(CNCCC)ccc5nc4c3cc2c1`: the logIC50 was -0.52.
Compound `COc1ccc2ccc3c([nH]c4c5ccccc5nc(NCCN(C)C)c34)c2c1` registered a logIC50 of 0.1.
Consider `CCCNCc1ccc2nc3ccc4nc5ccc(CNCCC)cc5cc4c3cc2c1`, for which the logIC50 turned out to be 0.
For `CCCNCc1ccc2nc3c(ccc4cc5cc(CNCCC)ccc5nc43)cc2c1`, the logIC50 is -0.3.
As to `CCN(CC)CCOc1ccc2c(c1)OC1C(=O)c3ccccc3C(=O)C21` (stereo unspecified), the logIC50 was determined as 0.84.
The same measure, in the same setting: the same measure for `C[N+]1(CCC(=O)Nc2ccc3c(c2)C(=O)c2cc(NC(=O)CC[N+]4(C)CCCCC4)ccc2-3)CCCCC1`: 1.32.
In the case of `CN(C)CCC(=O)Nc1ccc2c(c1)C(=O)c1cc(NC(=O)CCN(C)C)ccc1-2`, the logIC50 amounted to 1.21.
Same read-out and setting: next, `CN(C)CCCNCc1ccc2nc3ccc4cc5cc(CNCCCN(C)C)ccc5nc4c3cc2c1`: -1.55.
In turn, `CCCNCc1cc2nc3ccccc3cc2c2cc3ccccc3nc12` had a logIC50 of 0.16.
As for `CSc1nc(Nc2ccc3nc(C)cc(N(C)C)c3c2)nc(Nc2ccc3nc(C)cc(N(C)C)c3c2)n1`, the logIC50 is -1.39.
Consider `CC1CCCCN1CCC(=O)Nc1ccc2c(c1)C(=O)c1cc(NC(=O)CCN3CCCCC3C)ccc1-2` (stereo unspecified), for which the logIC50 is 1.08.
Compound `O=C(CCN1CCCCC1)Nc1ccc2c(c1)C(=O)c1cc(NC(=O)CCN3CCCCC3)ccc1-2` yielded a logIC50 of 0.95.
For `O=C(CCN1CCCCC1CO)Nc1ccc2c(c1)C(=O)c1cc(NC(=O)CCN3CCCCC3CO)ccc1-2` (stereo unspecified), the logIC50 was 0.9.
In the case of `C[N+](C)(C)c1ccc(Nc2nc(N)nc(Nc3ccc([N+](C)(C)C)cc3)n2)cc1`, the logIC50 was 0.84.
Same read-out and setting: next, `C[N+](C)(C)CCC(=O)Nc1ccc2c(c1)C(=O)c1cc(NC(=O)CC[N+](C)(C)C)ccc1-2`: 1.27; `C[N+]1(CCC(=O)Nc2ccc3c(c2)C(=O)c2cc(NC(=O)CC[N+]4(C)CCCCC4CO)ccc2-3)CCCCC1CO` (stereo unspecified): 1.52; `CC[N+](C)(CC)CCC(=O)Nc1ccc2c(c1)C(=O)c1cc(NC(=O)CC[N+](C)(CC)CC)ccc1-2`: 1.4.
Still for that read-out and setting: the same measure for `O=C(CCN1CCCCC1CCO)Nc1ccc2c(c1)C(=O)c1cc(NC(=O)CCN3CCCCC3CCO)ccc1-2` (stereo unspecified): 1.22; for `CN(C)CCCNCc1cc2nc3ccccc3cc2c2cc3ccccc3nc12`: -0.12.
Regarding `c1ccc2nc3cc(CNCCN4CCCCC4)c4nc5ccccc5cc4c3cc2c1`, the logIC50 is 0.3.
Turning to `C[N+]1(CCC(=O)Nc2ccc3c(c2)C(=O)c2cc(NC(=O)CC[N+]4(C)CCOCC4)ccc2-3)CCOCC1`, the logIC50 was 1.44.
The same measure, in the same setting: the same measure for `C[n+]1cccc2cc(Nc3nc(N)nc(Nc4ccc5c(ccc[n+]5C)c4)n3)ccc21`: -0.89; for `Cc1oc2nc1-c1nc(co1)-c1nc(co1)-c1nc(co1)-c1nc(co1)-c1nc(co1)C1=NC(CS1)c1nc-2c(C)o1` (stereo unspecified): -2.3; for `COc1ccc2c(ccc3c2[nH]c2c4ccccc4nc(NCCCN(C)C)c32)c1`: 0.
In turn, `CCN(CC)CCC(=O)Nc1ccc2c(c1)C(=O)c1cc(NC(=O)CCN(CC)CC)ccc1-2` displayed a logIC50 of 1.19.
Regarding `CN(C)CCCNCc1ccc2nc3c(ccc4cc5cc(CNCCCN(C)C)ccc5nc43)cc2c1`, the logIC50 is -0.04.
As to `CN(C)CCc1ccc2nc3c4ccccc4n(CCN(C)C)c3cc2c1`, the logIC50 stood at 1.2.
On the same count and under the same terms, next, `O=C(CCN1CCC(O)CC1)Nc1ccc2c(c1)C(=O)c1cc(NC(=O)CCN3CCC(O)CC3)ccc1-2`: 1.27; `CCC1CCCCN1CCC(=O)Nc1ccc2c(c1)C(=O)c1cc(NC(=O)CCN3CCCCC3CC)ccc1-2` (stereo unspecified): 1.15.
On the same count and under the same terms, the same measure for `CN1CCN(CCC(=O)Nc2ccc3c(c2)C(=O)c2cc(NC(=O)CCN4CCN(C)CC4)ccc2-3)CC1`: 1.64; for `CN(C)CCCNc1nc2ccccc2c2[nH]c3c4cc([N+](=O)[O-])ccc4ccc3c12`: -0.3.

A further assay shares this target. The assay can be described thus: Inhibition of telomerase in Homo sapiens (human) A549 cells after 24 hr by TRAP assay. The class given is cell-based.
Take `O=C(CCN1CCCCC1)Nc1ccc2cc3ccc(NC(=O)CCN4CCCCC4)cc3nc2c1`: the logIC50 stood at 0.45.
Turning to `O=C(CCN1CCCCCC1)Nc1ccc2cc3ccc(NC(=O)CCN4CCCCCC4)cc3nc2c1`, the logIC50 came to 0.49.
Compound `O=C(CCN1CCCCC1)Nc1ccc2c(c1)C(=O)c1ccc(NC(=O)CCN3CCCCC3)cc1C2=O` registered a logIC50 of 0.65.
Same read-out and setting: the same measure for `O=C(CCN1CCCC1)Nc1ccc2c(c1)C(=O)c1ccc(NC(=O)CCN3CCCC3)cc1C2=O`: 0.25; for `O=C(CCN1CCCC1)Nc1ccc2cc3ccc(NC(=O)CCN4CCCC4)cc3nc2c1`: 0.72; for `O=C(CCN1CCCCCC1)Nc1ccc2c(c1)C(=O)c1ccc(NC(=O)CCN3CCCCCC3)cc1C2=O`: 1.11.

The target is the same in the next assay. The assay can be described thus: Inhibition of Homo sapiens (human) telomerase.
Consider `O=C(O)CCCCCCCCCCCNC(=O)Cc1cn(CCCn2ccc3ccccc32)c2ccccc12`, for which the logIC50 worked out at 1.96.
As to `O=C(O)CCCCCCCCCCCNC(=O)Cc1cn(CCCOc2ccccc2)c2ccccc12`, the logIC50 came out at 1.51.
Still for that read-out and setting: the same measure for `O=C(O)CCCCCCCCCCCNC(=O)Cc1cn(CCCOC2CCCCC2)c2ccccc12`: 1.83; for `O=C(O)CCCCCCCCCCCNC(=O)Cc1cn(CCOc2cccc3ccccc23)c2ccccc12`: 1.54; for `O=C(O)CCCCCCCCCCCNC(=O)Cc1cn(CCn2ccc3ccccc32)c2ccccc12`: 1.61.
The same measure, in the same setting: next, `Cc1cn(CCCn2cc(CC(=O)NCCCCCCCCCCCC(=O)O)c3ccccc32)c2ccccc12`: 1.3; `Cc1c2n(c3ccccc13)CCCn1c-2c(CC(=O)NCCCCCCCCCCCC(=O)O)c2ccccc21`: 1.91.

The target is the same in a further assay. Put plainly: Inhibition of telomerase in Homo sapiens (human) A549 cells by TRAP assay. The format is cell-based.
As for `O=C(O)CCCCCCCCCCCNC(=O)Cc1c2n(c3ccccc13)CCn1c-2cc2ccccc21`, the logIC50 amounted to 1.79.
